This is an account of results in US7625948B2, “Ester compound and medicinal use thereof” (Japan Tobacco Inc., priority 2002, dated 2009).

In general, pIC50 refers to the IC50 on a negative log10 scale, so that one unit is a factor of ten.

Structures are written as SMILES. pIC50: −log10 of the molar value.

One assay has as its system HepG2 cells. The experiment in a line: Test Example 2: inhibition of apolipoprotein B secretion from HepG2 cells, ELISA (also used for metabolites in Test Example 8). Type of assay: cell-based. The conditions noted are these: Homo sapiens, 24 hours, apo B in supernatant by ELISA, read-out: Test Example 2 Inhibition of apo B secretion IC50. An outline of the steps:
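HepG2 cells cultured 24 h, then exposed 24 h to compounds or metabolites in medium with 0.5% DMSO. Secreted apo B in supernatant quantified by sandwich ELISA (HRP, ABTS, 405 nm) against purified human apo B standard; % inhibition vs DMSO group, IC50 derived.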
For orientation: ELISA stands for enzyme-linked immunosorbent assay.

A further assay concerns Syrian hamsters. The experiment in a line: Test Example 3: olive oil-loading test (inhibition of fat absorption, plasma TG). The following applies: Mesocricetus auratus, po, plasma TG 4 hours after olive oil, read-out: Test Example 3 Inhibition of fat absorption after olive oil-loading in Hamster Inhibition rate (%); for inhibition in vivo at 3 mg/kg: 3 mg/kg p.o. Format: in vivo. Here is the method: Syrian hamsters (9-11 weeks of age) under non-fasted conditions were used in the test. Blood was collected previously from orbital venous plexus, and a sample was suspended in 0.5% methyl cellulose (vehicle) and the suspension was forced to be administered orally to the hamsters at a dose of 0.3, 1, 3 or 10 mg/2 mL/kg. Only vehicle in the same volume was administered to the control group. Olive oil (2 mL/kg) was forced to be administered orally 30 minutes after the administration of the sample, and blood was collected from orbital venous plexus 4 hours later. Plasma was recovered from the blood, and the amount of triglyceride (TG) in the plasma was determined by automatic analyzer (Hitachi Co.). The data was expressed in terms of ΔTG(mg/dL)=the value at 4th hr minus the value before administration. Inhibition rate (%) was calculated from the data obtained on the basis of the following equation.
Inhibition rate (%)=100×(1 minus ΔTG of sample group/ΔTG of control group).

Take `CCNC(=O)C(COC(=O)Cc1ccc(NC(=O)c2ccccc2-c2ccc(C(F)(F)F)cc2)c(C(=O)N(C)CC)c1)(C(=O)NCC)c1ccccc1` [Example 2-14]: in the assay on HepG2 cells, the negative-log IC50 (pIC50) was 8.92. In addition, the inhibition in vivo at 3 mg/kg in the assay on Syrian hamsters stood at 80%.
For the molecule `CCNC(=O)C(COC(=O)Cc1ccc(NC(=O)c2ccccc2-c2ccc(C(F)(F)F)cc2)c(C(=O)OCC)c1)(C(=O)NCC)c1ccccc1` [Example 9-10], in the assay with HepG2 cells, the negative-log IC50 (pIC50) was 8.64. Besides, in the assay with Syrian hamsters, the inhibition in vivo at 3 mg/kg turned out to be 54%.
For `CCNC(=O)C(CCOC(=O)Cc1ccc(NC(=O)c2ccccc2-c2ccc(C(F)(F)F)cc2)c(OC(C)C)c1)(C(=O)NCC)c1ccccc1` [Example 3-11], the pIC50 with HepG2 cells is 9.44. In addition, in the assay on Syrian hamsters, the inhibition in vivo at 3 mg/kg was found to be 75%.
Take `CCNC(=O)C(COC(=O)Cc1ccc(NC(=O)c2ccccc2-c2ccc(C(F)(F)F)cc2)c(C(=O)N(CC)CC)c1)(C(=O)NCC)c1ccccc1` [Example 2-8]: the pIC50 with HepG2 cells is 9.00. Moreover, the inhibition in vivo at 3 mg/kg in the assay on Syrian hamsters came to 89%.
For `CCNC(=O)C(COC(=O)Cc1ccc(NC(=O)c2ccccc2-c2ccc(C(F)(F)F)cc2)c(C(=O)OC)c1)(C(=O)NCC)c1ccccc1` [Example 9-13] the same measures were 9.28 and 70%.
With `CCCNC(=O)C(COC(=O)Cc1ccc(NC(=O)c2ccccc2-c2ccc(C(F)(F)F)cc2)c(OC)c1)(C(=O)NCCC)c1ccccc1` [Example 3-5], the negative logarithm of the IC50 (pIC50) with HepG2 cells is 8.66. Further, the inhibition in vivo at 10 mg/kg in the assay with Syrian hamsters (10 mg/kg p.o.) is 80%.
For the molecule `CCC(=O)N[C@H](COC(=O)Cc1ccc(NC(=O)c2ccccc2-c2ccc(C(F)(F)F)cc2)c(C(=O)N(C)C)c1)c1ccccc1` [Example 2-25], the pIC50 in the assay on HepG2 cells is 8.20. The inhibition in vivo at 3 mg/kg with Syrian hamsters came out at 55%.
For `CCOC(=O)C(COC(=O)Cc1ccc(NC(=O)c2ccc(C)cc2-c2ccc(C(F)(F)F)cc2)c(C(=O)N(C)C)c1)(C(=O)OCC)c1ccccc1` [Example 2-48] the same measures were 9.44 and 87%.
For `CCCN(C)C(=O)c1cc(CC(=O)OCC(C(=O)OCC)(C(=O)OCC)c2ccccc2)ccc1NC(=O)c1ccccc1-c1ccc(C(F)(F)F)cc1` [Example 2-18] the same measures were 9.16 and 58%.
For `CCNC(=O)C(CCOC(=O)Cc1ccc(NC(=O)c2ccccc2-c2ccc(C(F)(F)F)cc2)c(C(=O)N(C)CC)c1)(C(=O)NCC)c1ccccc1` [Example 2-15] the same measures were 9.28 and 81%.
Regarding `CCOC(=O)C(COC(=O)Cc1ccc(NC(=O)c2ccccc2-c2ccc(C(F)(F)F)cc2)c(C(=O)N(C)CC)c1)(C(=O)OCC)c1ccccc1` [Example 2-13], the negative logarithm of the IC50 (pIC50) in the assay with HepG2 cells is 9.13. Moreover, the inhibition in vivo at 3 mg/kg in the assay with Syrian hamsters turned out to be 70%.
